Experimental data taken from ChEMBL document CHEMBL1201862, “PubChem BioAssay data set” (2004).
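Where inhibition never reached the appropriate level, the endpoint shown equals the highest concentration tested. Otherwise, values were interpolated linearly from a five-concentration, 48-hour dose response in 96-well plates. Abbreviation: GI50, concentration required for 50% inhibition of growth.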 Active and inactive are the calls of the source. No stated cut-off is given here; in the data, active = GI50 up to about 1.1 µM and inactive = higher.

Tests used:
Assay in all cases: DTP human tumour cell line panel, 48 h
[1] = tested on: HOP-62
[2] = tested on: OVCAR-5
[3] = tested on: K562
[4] = tested on: SNB-19
[5] = tested on: SK-MEL-2
[6] = tested on: A549
[7] = tested on: SF-295
[8] = tested on: ACHN
[9] = tested on: 786-0
[10] = tested on: M14
[11] = tested on: LOX IMVI
[12] = tested on: UO-31
[13] = tested on: MOLT-4
[14] = tested on: OVCAR-4
[15] = tested on: HCC 2998
[16] = tested on: HOP-92
[17] = tested on: Malme-3M

Measured: GI50

CC(=O)n1cc(CC(C)O)c(=O)[nH]c1=O (stereo unspecified)
inactive: [1] > 100 µM | [2] > 100 µM | [3] > 100 µM | [4] > 100 µM | [5] > 100 µM | [6] > 100 µM | [7] > 100 µM | [8] > 100 µM | [9] > 100 µM | [10] > 100 µM | [11] > 100 µM | [12] > 100 µM | [13] > 100 µM | [14] > 100 µM

O=C(O)C(CS)Nc1c2ccccc2nc2ccccc12 (stereo unspecified)
inactive: [2] 53.5 µM | [3] 49.7 µM | [15] 82 µM | [4] 61.1 µM | [5] 83.9 µM | [6] 67.5 µM | [7] 56.9 µM | [16] 49.7 µM | [8] 38.3 µM | [9] > 100 µM | [10] 43.7 µM | [11] 40.6 µM | [12] 26 µM | [13] 38.3 µM | [17] 54.3 µM | [14] 19.7 µM

Cc1ccc(S(=O)(=O)N/N=C(\c2nc3ccc(Cl)cc3[nH]c2=O)C(O)c2ccco2)cc1 (stereo unspecified)
inactive: [2] > 100 µM | [3] 42.3 µM | [15] > 100 µM | [4] > 100 µM | [5] > 100 µM | [6] > 100 µM | [7] > 100 µM | [16] > 100 µM | [8] > 100 µM | [9] > 100 µM | [10] > 100 µM | [11] > 100 µM | [13] 28.1 µM | [17] > 100 µM | [14] > 100 µM

CS(=O)(=O)C1S(=O)(=O)OCCOS1(=O)=O
inactive: [1] > 100 µM | [2] > 100 µM | [3] > 100 µM | [15] > 100 µM | [4] > 100 µM | [6] > 100 µM | [7] > 100 µM | [16] > 100 µM | [8] > 100 µM | [9] > 100 µM | [10] > 100 µM | [11] > 100 µM | [12] > 100 µM | [13] > 100 µM | [17] > 100 µM | [14] > 100 µM

O=C1CCCC(O)=C1SC1=C(O)CCCC1=O
inactive: [2] > 100 µM | [3] 51.4 µM | [15] 70.1 µM | [4] > 100 µM | [5] > 100 µM | [6] 70.3 µM | [7] > 100 µM | [16] > 100 µM | [9] 81.1 µM | [10] 56.4 µM | [11] > 100 µM | [12] 98.2 µM | [13] > 100 µM | [17] > 100 µM | [14] > 100 µM

COc1ccc2c3ccc4c(c3n(C)c2c1)C(=O)C=CC4=O
inactive: [1] > 100 µM | [3] 5.92 µM | [15] 84.5 µM | [4] > 100 µM | [6] > 100 µM | [7] > 100 µM | [16] 14.1 µM | [8] 20.7 µM | [9] 17.9 µM | [10] > 100 µM | [12] 20.5 µM | [13] 2.86 µM | [17] 30.5 µM | [14] 29.6 µM

CC1=C(C(=O)NCc2ccccc2)C(c2ccccc2[N+](=O)[O-])C(C(=O)NCc2ccccc2)=C(C)N1
inactive: [1] 20.6 µM | [2] 22.1 µM | [3] 5.08 µM | [15] 17.3 µM | [4] 14.2 µM | [6] 25.9 µM | [7] 12.4 µM | [16] 20.8 µM | [8] 13.9 µM | [9] 12.8 µM | [10] 11.7 µM | [11] 7.24 µM | [12] 13.9 µM | [13] 8.93 µM | [17] 13.7 µM | [14] 10.2 µM

Cc1cn(C2CC(O)C(COC(=O)c3ccccc3)O2)c(=O)[nH]c1=O (stereo unspecified)
inactive: [1] > 100 µM | [2] > 100 µM | [3] > 100 µM | [15] > 100 µM | [4] > 100 µM | [6] > 100 µM | [7] > 100 µM | [16] > 100 µM | [8] > 100 µM | [9] > 100 µM | [10] > 100 µM | [11] > 100 µM | [13] > 100 µM | [17] > 100 µM | [14] > 100 µM

COc1ccc(/C=C/COC(C)=O)cc1OC
inactive: [2] > 100 µM | [3] > 100 µM | [15] > 100 µM | [4] > 100 µM | [5] > 100 µM | [6] > 100 µM | [7] > 100 µM | [16] 86.5 µM | [8] > 100 µM | [9] > 100 µM | [12] > 100 µM | [13] > 100 µM | [17] > 100 µM | [14] > 100 µM

COc1ccc2c(c1)CCc1c(C(C)=O)c3ccccc3n1C2
inactive: [1] 26.4 µM | [2] > 100 µM | [3] 6.37 µM | [15] 33.7 µM | [4] 38.5 µM | [6] 11.2 µM | [7] 12.7 µM | [16] 20.3 µM | [8] 12 µM | [9] 31.6 µM | [10] 94.6 µM | [11] 41 µM | [12] 11.7 µM | [13] 13.4 µM | [17] 18.1 µM | [14] 28.3 µM

O=[N+]([O-])c1cccc(-c2oc(/C=N/c3ccccc3)c([N+](=O)[O-])c2-c2cccc([N+](=O)[O-])c2)c1
inactive: [1] > 100 µM | [2] > 100 µM | [3] > 100 µM | [15] > 100 µM | [5] > 100 µM | [6] > 100 µM | [7] > 100 µM | [16] > 100 µM | [8] > 100 µM | [9] > 100 µM | [10] > 100 µM | [11] > 100 µM | [12] > 100 µM | [13] > 100 µM | [17] > 100 µM

CCOC(=O)C(C)(C)Oc1ccc(/C=C/C(=O)c2ccc(Cl)cc2)cc1
inactive: [1] 39.4 µM | [3] 14.3 µM | [15] > 10 µM | [4] 19.2 µM | [5] 20.7 µM | [6] 33.5 µM | [7] 21 µM | [8] > 10 µM | [9] 17.2 µM | [10] 18.4 µM | [11] 16.6 µM | [12] 35.2 µM | [13] 19.6 µM | [17] 18.4 µM | [14] 18.9 µM

CC#CCC1CCC(OCC)=CC1=O (stereo unspecified)
inactive: [1] > 100 µM | [2] > 100 µM | [3] > 100 µM | [4] > 100 µM | [5] > 100 µM | [6] > 100 µM | [7] > 100 µM | [16] > 100 µM | [8] > 100 µM | [9] > 100 µM | [10] > 100 µM | [11] > 100 µM | [12] > 100 µM | [13] > 100 µM | [14] > 100 µM
